Data from article PMC7026885, “Macrofilaricidal Benzimidazole–Benzoxaborole Hybrids as an Approach to the Treatment of River Blindness: Part 1. Amide Linked Analogs” (ACS Infectious Diseases, 2019).
pIC50: −log10 of the molar value.

Assays:
[1] = test system: G2/M arrest (functional indicator of interaction with mammalian tubulin); assay: mammalian G2/M arrest assay; format: cell-based; conditions: Table 3; read-out: G2/M IC50
Description: (§1) The first three analogs from the benzimidazole 5-carboxylic acid, namely 7a (from 6-aminobenzoxaborole), 8a (from 6-aminomethyl-3,3-dimethylbenzoxaborole), and 8b (from 3-aminomethylbenzoxaborole), were prepared and tested in an Onchocerca volvulus L3 larval molting assay[34],[35] and a mammalian G2/M arrest assay[36] to evaluate antifilarial activity and selectivity, respectively (Table 1). O. volvulus is the causative agent of river blindness, and the L3 molting assay is the only widely available and reproducible assay of this filariid, the target of novel macrofilaricidal drugs.[34],[35] Other animal models (e.g., Brugia in gerbils) recapitulate aspects of lymphatic filariasis and are also used as surrogate screens for O. volvulus infections. Of the three compounds tested, 8a emerged as the most attractive compound on the basis of potency and selectivity.
Similarly, changing the point of attachment on the benzoxaborole core from 6- to 5- to afford 8d was also accompanied by increased potency in both the O. volvulus and G2/M arrest assays.

[2] = MDR1-MDCK monolayer permeability assay; format: in vitro ADME; conditions: dog
Description: We characterized the in vitro ADME properties of 8a in preparation for evaluation of this compound in our primary in vivo model in gerbils. […] We were pleased to find that 8a was able to kill 100% of both male and female worms in the gerbil peritoneum when dosed subcutaneously at 100 mg/kg/day for 14 days as a suspension in a nonsolubilizing HEC/Tween vehicle. […] The subsequent assessment of the pharmacokinetics of 8a from these two dosing paradigms provided an interesting observation that we believe to be important in understanding the PK–PD requirements for achieving efficacy in this animal model. […] We had made the same observation in a positive control group using flubendazole at a subcutaneous dose of 10 mg/kg/day for 5 days in the nonsolubilizing HEC/Tween vehicle, namely, that plasma levels of flubendazole were maintained above the in vitro IC50 (4 nM) for over 42 days, consistent with data reported in the literature.[43] […] We next examined 8a in two additional in vivo models, the first where L3 B. pahangi larvae were injected into the peritoneum of gerbils and allowed to develop into adult worms[45] and a second where gerbils were naturally infected by the filarial nematode Litomosoides sigmodontis.[46],[47] In both of these models, 8a was administered subcutaneously at 100 mg/kg for 14 days or orally at 100 mg/kg for 28 days as a suspension. […] Additionally, when plasma obtained from treated animals at necropsy was analyzed for 8a, we observed an outcome similar to that observed in the adult implantation model, e.g., that measurable levels were present at this time point in the subcutaneous-dosed groups but not in the orally dosed groups, weeks after administration of the drug. In a final L. sigmodontis experiment with 8a, we dosed the compound subcutaneously at 300 mg/kg for 7 days as a suspension.

[3] = test system: Onchocerca volvulus L3 larvae; assay: Onchocerca volvulus L3 larval molting assay; format: cell-based; conditions: O. volvulus, 1 μM
Description: as §1
Plates were incubated at 37 °C in a 5% CO2 incubator for 6 days, then molting was assessed visually using an inverted microscope. Molting was determined in each well by counting the presence of fourth stage larvae (L4s) and empty casts of L3s.
The percent inhibition of molting was calculated based on the number of treated larvae that were able to molt in comparison to the number of control larvae that had successfully molted. IC50 values were calculated using GraphPad Prism v6.0
(http://www.graphpad.com). See Bullman et al., PLoS Negl. Trop.
Adult Brugia malayi transplantation in vivo model procedure.
Gerbils (Meriones unguiculatus) were infected by transplantation of 10 male and 10 female adult Brugia malayi into the peritoneal cavity. Gerbils were acclimated for 7 days prior to treatment. Animals were dosed based on their body weight prior to each dosing. Animals were administered their doses at the same time each day and receive standard rodent laboratory diet and water ad libitum. Gerbils were humanely euthanized at the conclusion of each study. Peritoneal counts of male and female adult B. malayi and visual condition of the peritoneum were recorded.
Brugia pahangi L3 injection in vivo model procedure 8.
Male gerbils (Meriones unguiculatus) approximately 6 weeks of age (50-60 g) were purchased from Charles Rivers (USA, Kingston K62 Gerbils) and infected by intraperitoneal injection with 200 Brugia pahangi third-stage larvae (L3) per animal
(Filariatech, Inc., Athens, GA). Gerbils were housed with no more than 5 animals per cage and maintained 9 months prior to treatment. All gerbils were dosed in accordance with their body weight determined prior to each dosing. Animals were […]

| pIC50 [1] | Papp A→B [2] [×10⁻⁶ cm/s] | SMILES | inhibition at 1 µM [3] [%] |
| --- | --- | --- | --- |
| < 4.00 | 1.8 | COC(=O)Nc1nc2ccc(C(=O)NCc3ccc4c(c3)B(O)OC4(C)C)cc2n1C [8f] | 29 |
| 5.39 | 0.6 | COC(=O)Nc1nc2ccc(C(=O)N(C)Cc3ccc4c(c3)B(O)OC4(C)C)cc2[nH]1 [8g] |  |
| 4.80 | 2.35 | COC(=O)Nc1nc2c(F)c(C(=O)NCc3ccc4c(c3)B(O)OC4(C)C)ccc2[nH]1 [8i] | 0 |

More lines, now with the values behind:

| SMILES | pIC50 [1] | Papp A→B [2] [×10⁻⁶ cm/s] | inhibition at 1 µM [3] [%] |
| --- | --- | --- | --- |
| COC(=O)Nc1nc2cc(C(=O)NCc3ccc4c(c3)B(O)OC4(C)C)ccc2n1C [8e] | < 4.00 | 1.2 | 24 |
| COC(=O)Nc1nc2ccc(C(=O)N(CCN(C)C)Cc3ccc4c(c3)B(O)OC4(C)C)cc2[nH]1 [8h] | 4.46 | 0.14 |  |
